Results: US11464770B2, “Anticancer pharmaceutical composition” (NATIONAL CANCER CENTER, priority 2016, dated 2022)
Where two headings read alike, the source gives them in different places.

Key:
[1] = tested on: blood cancer cell lines (e.g. HL-60, Jurkat, Raji, Ramos, Daudi, MOLT-4); experiment: Cell based assay, cell viability (CellTiter-Glo), blood cancer cell lines; settings: Homo sapiens
Experimental: (§1) Commercially available bladder cancer, prostate cancer, lung cancer, breast cancer, blood cancer, pancreatic cancer, colorectal cancer, brain cancer, neuroblastoma, melanoma, liver cancer, cervical carcinoma, ovarian cancer, renal cancer, and papilloma cell lines were each treated with trypsin-EDTA and cultured, followed by being seeded in each well of a 96 well plate. After 24 hours of treatment at constant temperature, the respective cells were treated with the candidate compound so that a final concentration became 0 to 2 μM. The treated cells were additionally cultured for 72 hours, and cell viability was measured by using an ATP detection method (CellTiter-Glo® Luminescent Cell Viability Assay, Promega).

[2] = tested on: prostate cancer cell lines (e.g. DU145/TXR); experiment: Cell based assay, cell viability (CellTiter-Glo), prostate cancer cell lines; settings: Homo sapiens, 72 hours treatment, final concentration 0 to 2 μM
Experimental: as §1

[3] = tested on: brain cancer cell lines; experiment: Cell based assay, cell viability (CellTiter-Glo), brain cancer cell lines; settings: Homo sapiens
Experimental: as §1, with “After 24 hours of treatment at constant temperature, the respective cells were treated with the candidate compound so that a final concentration became 0 to 2 μM.” left out

[4] = tested on: RT4: human urinary bladder transitional cell papilloma; experiment: Cell based assay, cytotoxicity in RT4 papilloma cells (selectivity); settings: Homo sapiens, RT-4; RT4 cells
Experimental: as §1, with “After 24 hours of treatment at constant temperature, the respective cells were treated with the candidate compound so that a final concentration became 0 to 2 μM.” left out

[5] = MV4-11, blood cancer cell line MV-4-11, 72 hours, read-out: IC50, MV-4-11
[6] = blood cancer cell line Daudi, 72 hours, read-out: IC50, Daudi
[7] = blood cancer cell line HL-60, 72 hours, read-out: IC50, HL-60
[8] = blood cancer cell line Jurkat, 72 hours, read-out: IC50, Jurkat
[9] = blood cancer cell line MOLT-4, 72 hours, read-out: IC50, MOLT-4
[10] = blood cancer cell line Raji, 72 hours, read-out: IC50, Raji
[11] = blood cancer cell line Ramos (RA 1), 72 hours, read-out: IC50, Ramos (RA 1)
[12] = blood cancer cell line U-937, 72 hours, read-out: IC50, U-937
[13] = CWR22 cells, read-out: IC50, prostate cancer cell line CWR22
[14] = DU-145, DU145/TXR cells, read-out: IC50, prostate cancer cell line DU145/TXR
[15] = DU-145, DU145 cells, read-out: IC50, prostate cancer cell line DU145
[16] = LNcap cells, read-out: IC50, prostate cancer cell line LNcap
[17] = PC-3 cells, read-out: IC50, prostate cancer cell line PC-3
[18] = U138-MG, U-138 MG cell line, read-out: IC50, Brain cancer cell line U-138 MG
[19] = T98G cell line, read-out: IC50, Brain cancer cell line T98G
[20] = U-251 MG cell line, read-out: IC50, Brain cancer cell line U-251 MG

| SMILES | IC50 [1, 5] | IC50 [1, 6] | IC50 [1, 7] | IC50 [1, 8] | IC50 [1, 9] | IC50 [1, 10] | IC50 [1, 11] | IC50 [1, 12] | IC50 [2, 13] | IC50 [2, 14] | IC50 [2, 15] | IC50 [2, 16] | IC50 [2, 17] | IC50 [3, 18] | IC50 [3, 19] | IC50 [3, 20] | IC50 [4] |
| --- | --- | --- | --- | --- | --- | --- | --- | --- | --- | --- | --- | --- | --- | --- | --- | --- | --- |
| CC(=O)c1c([S+](C)[O-])n(S(=O)(=O)c2ccc(C(C)(C)C)cc2)c2c(Br)ccc(Cl)c2c1=O (stereo not shown) [Compound 42, 3-acetyl-8-bromo-1-((4-(tert-butyl)phenyl)sulfonyl)-5-chloro-2-(methylsulfinyl)quinolin-4(1H)-one] | > 2 µM | > 2 µM | > 2 µM | > 2 µM | > 2 µM | > 2 µM | > 2 µM | > 2 µM | > 2 µM | > 2 µM | > 2 µM | > 2 µM | > 2 µM | > 2 µM | > 10 µM | > 2 µM | > 10 µM |
| CC(=O)c1c(SCc2cc(Cl)ccc2Cl)[nH]c2c(Br)ccc(Cl)c2c1=O [Compound 43, 3-acetyl-8-bromo-5-chloro-2-((2,5-dichlorobenzyl)thio)quinolin-4(1H)-one] | > 2 µM | > 2 µM | > 2 µM | > 2 µM | > 2 µM | > 2 µM | > 2 µM | > 2 µM | > 2 µM | > 2 µM | > 2 µM | > 2 µM | > 2 µM | > 10 µM | > 10 µM | > 2 µM | > 10 µM |
| CC(=O)c1c(SCc2cc(F)cc(F)c2)[nH]c2c(Br)ccc(Cl)c2c1=O [Compound 45, 3-acetyl-8-bromo-5-chloro-2-((3,5-difluorobenzyl)thio)quinolin-4(1H)-one] | > 2 µM | > 2 µM | > 2 µM | > 2 µM | > 2 µM | > 2 µM | > 2 µM | > 2 µM | > 2 µM | > 2 µM | > 2 µM | > 2 µM | > 2 µM | > 10 µM | > 10 µM | > 2 µM | > 10 µM |
| CC(=O)c1c(SCc2cccc(I)c2)[nH]c2c(Br)ccc(Cl)c2c1=O [Compound 47, 3-acetyl-8-bromo-5-chloro-2-((3-iodobenzyl)thio)quinolin-4(1H)-one] | > 2 µM | > 2 µM | > 2 µM | > 2 µM | > 2 µM | > 2 µM | > 2 µM | > 2 µM | > 2 µM | > 2 µM | > 2 µM | > 2 µM | > 2 µM | > 10 µM | > 10 µM | > 2 µM | > 10 µM |

Second part, led by results:

| IC50 [1, 5] | IC50 [1, 6] | IC50 [1, 7] | IC50 [1, 8] | IC50 [1, 9] | IC50 [1, 10] | IC50 [1, 11] | IC50 [1, 12] | IC50 [2, 13] | IC50 [2, 14] | IC50 [2, 15] | IC50 [2, 16] | IC50 [2, 17] | IC50 [3, 18] | IC50 [3, 19] | IC50 [3, 20] | SMILES | IC50 [4] |
| --- | --- | --- | --- | --- | --- | --- | --- | --- | --- | --- | --- | --- | --- | --- | --- | --- | --- |
| > 2 µM | > 2 µM | > 2 µM | > 2 µM | > 2 µM | > 2 µM | > 2 µM | > 2 µM | > 2 µM | > 2 µM | > 2 µM | > 2 µM | > 2 µM | > 10 µM | > 10 µM | > 2 µM | CSc1c(C(C)=O)c(=O)c2c(Cl)ccc(Br)c2n1S(=O)(=O)c1ccc([N+](=O)[O-])cc1 [Compound 38, 3-acetyl-8-bromo-5-chloro-2-(methylthio)-1-((4-nitrophenyl)sulfonyl)quinolin-4(1H)-one] | > 10 µM |
| > 2 µM | > 2 µM | > 2 µM | > 2 µM | > 2 µM | > 2 µM | > 2 µM | > 2 µM | > 2 µM | > 2 µM | > 2 µM | > 2 µM | > 2 µM | > 10 µM | > 10 µM | > 2 µM | CCS(=O)(=O)n1c([S+](C)[O-])c(C(C)=O)c(=O)c2c(Cl)ccc(Br)c21 (stereo not shown) [Compound 39, 3-acetyl-8-bromo-5-chloro-1-(ethylsulfonyl)-2-(methylsulfinyl)quinolin-4(1H)-one] | > 10 µM |
| > 2 µM | > 2 µM | > 2 µM | > 2 µM | > 2 µM | > 2 µM | > 2 µM | > 2 µM | > 2 µM | > 2 µM | > 2 µM | > 2 µM | > 2 µM | > 10 µM | > 10 µM | > 2 µM | CSc1c(C(C)=O)c(=O)c2c(Cl)ccc(Br)c2n1S(=O)(=O)c1ccc(C(C)(C)C)cc1 [Compound 40, 3-acetyl-8-bromo-1-((4-(tert-butyl)phenyl)sulfonyl)-5-chloro-2-(methylthio)quinolin-4(1H)-one] | > 10 µM |
| > 2 µM | > 2 µM | > 2 µM | > 2 µM | > 2 µM | > 2 µM | > 2 µM | > 2 µM | > 2 µM | > 2 µM | > 2 µM | > 2 µM | > 2 µM | > 10 µM | > 10 µM | > 2 µM | CC(=O)c1c(S(C)(=O)=O)n(S(=O)(=O)c2ccc(C(C)(C)C)cc2)c2c(Br)ccc(Cl)c2c1=O [Compound 41, 3-acetyl-8-bromo-1-((4-(tert-butyl)phenyl)sulfonyl)-5-chloro-2-(methylsulfonyl)quinolin-4(1H)-one] | > 10 µM |
